Data on 2 compounds can be found in paper PMC11653257, “Organometallic Half-Sandwich Complexes of 8-Hydroxyquinoline-Derived Mannich Bases with Enhanced Solubility: Targeting Multidrug Resistant Cancer” (Inorganic Chemistry, 2024).

Data set [1] deals with Colo205. In words: Cytotoxicity, Colo205. The conditions noted are these: Homo sapiens, COLO 205; 72 h incubation; this work. The format is cell-based. An excerpt:
(§1) Supplementary Information
(§2) (11 pictures or pasted objects on this page, not shown here)

Data set [2] concerns MES-SA/Dx5. In words: Cytotoxicity in triple coculture, MES-SA/Dx5 eGFP. It is filed as cell-based, human. The method, then: (§3) Cell lines were purchased from the American Type Culture Collection (ATCC). MES-SA/B1 is a human MDR1-transfected derivative of MES-SA, and MES-SA mCherry, MES-SA/B1 mOrange, and MES-SA/Dx5 eGFP were engineered to stably express the respective fluorescent proteins previously.[62] Cells were kept in culture medium (DMEM) supplemented with 10% fetal bovine serum, 2 mM L-glutamine, 100 units/mL penicillin, and 100 μg/mL streptomycin (Thermo Fisher). One week before use, MES-SA/Dx5 eGFP cells were treated with 0.5 μM doxorubicin to ensure ABCB1/P-gp expression.
(§4) The tested compounds were dissolved in 50% (v/v) DMSO/PBS’ buffer to prepare 5–10 mM stock solutions, which were diluted in complete culture medium. Constitutive expression of the fluorescent proteins allowed multiplexing in cytotoxicity experiments.[62] Cells were mixed before seeding in 384-well plates: in double cocultures, MES-SA mCherry and MES-SA/Dx5 eGFP cells were seeded at 1250–1250 cells/well (in total 2500 cells/well); while in triple cocultures, MES-SA mCherry, MES-SA/Dx5 eGFP and MES-SA/B1 mOrange cells were seeded at 800–800–800 cells/well (in total 2400 cells/well). Serial dilutions of the compounds were added 24 h after seeding. To address the effect of P-gp function, TQ was added at a nontoxic concentration (0.4 μM) 15 min before the test compounds. The intensity of the fluorescent proteins, which is proportional to cell mass, was measured after 144 h of incubation at the respective fluorescent channels (excitation/emission: eGFP: 485 nm/510 nm; mOrange: 545 nm/567 nm; mCherry: 585 nm/610 nm). pIC50 values were calculated by a custom program written by Judit Sessler in C#.[62] IC50 values and standard deviation were calculated from average pIC50 values from at least 3 independent measurements.

The subject of data set [3] is MES-SA. Put plainly: Cytotoxicity in double coculture, MES-SA mCherry. Conditions: Homo sapiens, MES-SA, 144 h, read-out: IC50 MES-SA.
Method: Therefore, the novel half-sandwich complexes (1–4) and their corresponding ligands were tested against a coculture of MES-SA and MES-SA/Dx5 cells expressing the fluorescent proteins mCherry or eGFP, respectively.[62]
The tested compounds were dissolved in 50% (v/v) DMSO/PBS’ buffer to prepare 5–10 mM stock solutions, which were diluted in complete culture medium. Constitutive expression of the fluorescent proteins allowed multiplexing in cytotoxicity experiments.[62] […] Serial dilutions of the compounds were added 24 h after seeding. To address the effect of P-gp function, TQ was added at a nontoxic concentration (0.4 μM) 15 min before the test compounds. […] IC50 values and standard deviation were calculated from average pIC50 values from at least 3 independent measurements.
For data set [4], the system named is Colo320. Put plainly: Cytotoxicity, Colo320. The format is cell-based, human. The conditions noted are these: this work.
Source text: as §1, §2

Data set [5] relates to MES-SA/Dx5. In words: Cytotoxicity in double coculture, MES-SA/Dx5 eGFP. Conditions: for IC50: Homo sapiens, MES-SA/Dx5, 144 h, read-out: IC50 MES-SA/Dx5; for SR = IC50 (MES-SA)/IC50 (MES-SA/Dx5): double coculture.
Data set [6] deals with MES-SA. In words: Cytotoxicity in triple coculture, MES-SA mCherry. The format is cell-based, human. The conditions noted are these: Homo sapiens, MES-SA/B1, MES-SA/Dx5, 144 h. The method, then:
as §3, §4

Data set [7] has as its system A431-B1. More on the design: method as in earlier work. Conditions: monoculture, ref SI3, cited from earlier work.
The conditions of data set [8]: pH 7.4; cited from earlier work.
The subject of data set [9] is MES-SA. The conditions noted are these: monoculture, PrestoBlue; ref SI2; cited from earlier work.
Data set [10] deals with MES-SA/Dx5. Conditions: monoculture, ref SI2, cited from earlier work.
Data set [11] deals with A431. More on the design: method as in earlier work. The conditions noted are these: monoculture, 72 h, PrestoBlue; ref SI3; cited from earlier work.

Read-outs that look alike come from different tables or passages of the source.

As to `COc1cccc2c1C(=O)c1c(O)c3c(c(O)c1C2=O)C[C@@](O)(C(=O)CO)C[C@@H]3O[C@H]1C[C@H](N)[C@H](O)[C@H](C)O1` [doxorubicin, reference compound], the IC50 in data set [1] amounted to 50 ± 10 nM; in data set [2] (Homo sapiens, MES-SA/Dx5, 144 h) it was 1070 nM; in [3] it was 30 nM; in data set [4] (Homo sapiens, COLO 320, 72 h incubation), 190 ± 20 nM; in data set [5] it was 2620 nM; in data set [6], 30 nM. In data set [2], the “SR Dx5 = IC50 (MES-SA)/IC50 (MES-SA/Dx5)” value was determined as 0.03. In addition, in [4], the “SR (Colo205 / Colo320)” value worked out at 0.3. The “SR = IC50 (MES-SA)/IC50 (MES-SA/Dx5)” value in [5] (+ 0.4 μM tariquidar (TQ)) came out at 1.3; in data set [5] (without TQ) it was 0.01.

For the compound `Oc1c(CN2CCCCC2)ccc2cccnc12` [PHQ, 7-(1-piperidinylmethyl)quinolin-8-ol, reference compound], the IC50 in [7] (72 h, PrestoBlue) was 2480 ± 700 nM; in data set [3] it was 3800 nM; in data set [9], 3630 ± 580 nM; in data set [10] (PrestoBlue), 620 ± 30 nM; in [11], 10100 ± 2950 nM; in data set [5] it was 490 nM. Further, the “SR (A431 / A431-B1)” value in [7] is 4.09. Also, in data set [8], the “log D7.4” value is recorded as “+0.93”. For the same compound, the “SR (MES-SA / MES-SA/Dx5)” value was 0.92 in [10] (+ 1 µM TQ) and 5.85 in [10]. Further, the “SR = IC50 (MES-SA)/IC50 (MES-SA/Dx5)” value in [5] (+ 0.4 μM tariquidar (TQ)) was found to be 1.8; in [5] (without TQ) it was 7.8.
